Laboratory results taken from US8710178B2, “Macrocyclic cysteine protease inhibitors and compositions thereof” (Lincoln University, priority 2006, dated 2014).
pIC50: −log10 of the molar value. Like-named read-outs stand apart in the source and are kept apart here.

Key:
calpain I (μ calpain) = biological target: T1, calpain I (μ calpain) (Homo sapiens, UniProt P07384); test: BODIPY-casein fluorescence-based enzyme assay, calpain I; type: biochemical; conditions: BODIPY-casein substrate
T1 sequence (P07384 1-714): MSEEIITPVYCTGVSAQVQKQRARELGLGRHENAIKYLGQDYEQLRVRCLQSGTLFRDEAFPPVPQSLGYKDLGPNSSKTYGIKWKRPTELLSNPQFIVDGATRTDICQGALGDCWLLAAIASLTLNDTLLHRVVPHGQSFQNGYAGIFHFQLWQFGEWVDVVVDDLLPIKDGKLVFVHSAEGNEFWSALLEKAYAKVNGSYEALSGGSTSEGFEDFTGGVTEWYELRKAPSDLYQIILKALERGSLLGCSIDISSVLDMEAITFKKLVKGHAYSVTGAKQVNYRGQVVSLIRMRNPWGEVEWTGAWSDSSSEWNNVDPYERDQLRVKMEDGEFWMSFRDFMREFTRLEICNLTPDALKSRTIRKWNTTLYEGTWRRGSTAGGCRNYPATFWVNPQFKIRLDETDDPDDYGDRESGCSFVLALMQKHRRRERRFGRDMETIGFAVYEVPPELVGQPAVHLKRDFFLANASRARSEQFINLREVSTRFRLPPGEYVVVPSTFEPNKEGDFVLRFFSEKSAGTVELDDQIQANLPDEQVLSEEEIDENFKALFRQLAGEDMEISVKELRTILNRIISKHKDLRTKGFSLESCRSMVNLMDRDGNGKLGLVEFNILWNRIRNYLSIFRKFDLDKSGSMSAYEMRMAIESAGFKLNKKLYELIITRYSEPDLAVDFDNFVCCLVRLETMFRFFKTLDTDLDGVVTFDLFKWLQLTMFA
T1 sequence (P04632 1-268 partner): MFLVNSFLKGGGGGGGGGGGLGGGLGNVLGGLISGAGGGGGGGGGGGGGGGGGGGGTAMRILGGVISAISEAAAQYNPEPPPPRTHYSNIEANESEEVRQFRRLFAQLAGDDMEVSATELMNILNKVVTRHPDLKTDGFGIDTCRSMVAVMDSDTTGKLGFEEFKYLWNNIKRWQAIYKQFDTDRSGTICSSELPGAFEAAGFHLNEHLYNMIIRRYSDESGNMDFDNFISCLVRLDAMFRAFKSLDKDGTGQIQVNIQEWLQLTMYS

calpain II (m calpain) = biological target: T2, calpain II (m calpain) (Homo sapiens, UniProt P17655); test: BODIPY-casein fluorescence-based enzyme assay, calpain II / m-calpain; type: biochemical; conditions: BODIPY-casein substrate
T2 sequence (P17655 1-700): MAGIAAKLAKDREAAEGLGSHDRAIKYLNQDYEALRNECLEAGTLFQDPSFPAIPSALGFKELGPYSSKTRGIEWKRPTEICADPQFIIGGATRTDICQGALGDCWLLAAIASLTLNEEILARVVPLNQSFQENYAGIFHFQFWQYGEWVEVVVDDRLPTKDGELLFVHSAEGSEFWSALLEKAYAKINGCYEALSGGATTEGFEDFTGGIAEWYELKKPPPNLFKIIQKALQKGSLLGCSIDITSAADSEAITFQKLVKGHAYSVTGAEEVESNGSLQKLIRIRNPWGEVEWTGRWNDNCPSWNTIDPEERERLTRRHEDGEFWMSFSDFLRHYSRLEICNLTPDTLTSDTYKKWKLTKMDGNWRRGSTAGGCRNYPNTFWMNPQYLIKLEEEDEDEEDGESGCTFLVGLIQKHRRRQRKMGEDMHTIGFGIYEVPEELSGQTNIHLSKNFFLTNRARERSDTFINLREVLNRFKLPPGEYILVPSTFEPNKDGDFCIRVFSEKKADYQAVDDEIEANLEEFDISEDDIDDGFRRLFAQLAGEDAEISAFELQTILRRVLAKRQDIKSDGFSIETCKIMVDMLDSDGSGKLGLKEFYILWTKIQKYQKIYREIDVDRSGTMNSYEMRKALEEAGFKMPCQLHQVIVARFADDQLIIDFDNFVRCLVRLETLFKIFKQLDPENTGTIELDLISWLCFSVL
T2 sequence (P04632 1-268 partner): T1 sequence (P04632 1-268 partner)
Procedure: (§1) The inhibitors were assayed against several enzymes using a BODIPY-casein substrate in the fluorescence-based assay procedure of V. F. Thompson, S. Saldana, J. Cong and D. E. Goll, Anal. Biochem. 2000, 279, 170.
A number of the compounds were assayed against m-calpain using a BODIPY-casein substrate in the fluorescence-based assay procedure of V. F. Thompson, S. Saldana, J. Cong and D. E. Goll, Anal. Biochem. 2000, 279, 170.

cathepsin B = cathepsin B (Homo sapiens, UniProt P07858); test: BODIPY-casein fluorescence-based enzyme assay, cathepsin B; type: biochemical; conditions: BODIPY-casein substrate
α-chymotrypsin = α-chymotrypsin (Bos taurus, UniProt P00766); test: BODIPY-casein fluorescence-based enzyme assay, α-chymotrypsin; type: biochemical; conditions: BODIPY-casein substrate
papain = biological target: T3, papain (Carica papaya, UniProt P00784); test: BODIPY-casein fluorescence-based enzyme assay, papain; type: biochemical; conditions: BODIPY-casein substrate
T3 sequence (P00784 134-345): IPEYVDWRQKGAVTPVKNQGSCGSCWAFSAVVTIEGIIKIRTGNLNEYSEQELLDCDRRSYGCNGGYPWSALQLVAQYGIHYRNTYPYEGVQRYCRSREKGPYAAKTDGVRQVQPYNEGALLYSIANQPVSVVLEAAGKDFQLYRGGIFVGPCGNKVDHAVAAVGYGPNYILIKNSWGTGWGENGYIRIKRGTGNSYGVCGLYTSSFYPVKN
Procedure: as §1

eye of a lamb = test: Eye irritation test of ointment in a lamb; type: in vivo; conditions: ointment (50 mg) comprising 1% of compound, one eye of a lamb, three times in one day
[1] = tested on: lambs genetically predisposed to cataracts; test: Cataract progression in lambs genetically predisposed to cataracts; conditions: for cataract progression in both eyes versus placebo-treated lambs: 1% ointment (25 mg) twice daily for three months, p=0.066 (compound 9), p=0.26 (compound 8); for cataract progression, treated right eye versus left eye: 1% ointment (25 mg) twice daily to right eye for three months, slit-lamp microscope
Procedure: A flock of 63 lambs genetically predisposed to cataracts were split into three equal groups. […] A placebo ointment (25 mg) was applied twice daily to the right eye of the final group of 21 lambs for three months starting when they were three to four months old.
The progression of cataracts was determined by a veterinary ophthalmologist with a slit-lamp microscope.

[2] = Table 2, read-out: IC50 calpain II (m calpain)
[3] = Table 3, read-out: IC50 against m-calpain

| SMILES | pIC50 (calpain I (μ calpain)) | pIC50 (calpain II (m calpain); [2]) | pIC50 (calpain II (m calpain); [3]) | pIC50 (cathepsin B) | pIC50 (α-chymotrypsin) | pIC50 (papain) | sign of irritation (eye of a lamb) | cataract progression in both eyes versus placebo-treated lambs [1] | cataract progression, treated right eye versus left eye [1] | slowing of cortical cataract progression ([1]; over a 12 week period, flock of lambs genetically predisposed to cataracts) [%] | signs of toxicity ([1]; over a 12 week period, lambs) |
| --- | --- | --- | --- | --- | --- | --- | --- | --- | --- | --- | --- |
| CC(C)C[C@@H]1NC(=O)[C@@H](NC(=O)OCc2ccccc2)Cc2ccc(cc2)OCCCC[C@@H](C=O)NC1=O [Compound 9] | 6.65 | 7.52 | 7.52 | 7.15 | < 4.30 | < 4.30 | No sign of irritation | significantly slower | did not show significantly slower cataract progression | 30 | no signs of toxicity |
| CC(C)C[C@@H]1NC(=O)[C@@H](NC(=O)OCc2ccccc2)Cc2ccc(cc2)OCCCC[C@@H](CO)NC1=O [Compound 8] | 5.76 | 6.15 | 6.15 | 6.54 | < 4.30 | < 4.30 |  | significantly slower | did not show significantly slower cataract progression |  |  |
| CC(C)C[C@@H]1NC(=O)[C@@H](NC(=O)OCc2ccccc2)Cc2ccc(cc2)OCCCC[C@@H](CN=[N+]=[N-])NC1=O [Compound 79, (7S-azidomethyl-10S-isobutyl-9,12-dixoxo-2-oxa-8,11-diazabicyclo-[13.2.2]nonadeca-1(18),15(19),16-trien-13S-yl)carbamic acid benzyl ester] | < 4.30 | < 4.30 | < 4.30 | < 4.30 | < 4.30 | < 4.30 |  |  |  |  |  |
